Laboratory results from patent publication US8901313B2, “6,5-heterocyclic propargylic alcohol compounds and uses therefor” (Genentech, Inc., priority 2011, dated 2014).

What follows are compounds tested against T1, nuclear factor-kappa B (NF-kB)-inducing kinase (NIK) (Homo sapiens, UniProt Q99558) (assay: NIK Enzyme Inhibition Assay (Transcreener ADP assay)). Details: purified NIK 0.2-1 nM, 10 uM ATP, fluorescence polarization, Morrison's quadratic equation; read-out: inhibitory value (Ki) for NIK.
T1 construct: made in house; host or cells: baculovirus-infected insect cells
T1 sequence (Q99558 whole entry): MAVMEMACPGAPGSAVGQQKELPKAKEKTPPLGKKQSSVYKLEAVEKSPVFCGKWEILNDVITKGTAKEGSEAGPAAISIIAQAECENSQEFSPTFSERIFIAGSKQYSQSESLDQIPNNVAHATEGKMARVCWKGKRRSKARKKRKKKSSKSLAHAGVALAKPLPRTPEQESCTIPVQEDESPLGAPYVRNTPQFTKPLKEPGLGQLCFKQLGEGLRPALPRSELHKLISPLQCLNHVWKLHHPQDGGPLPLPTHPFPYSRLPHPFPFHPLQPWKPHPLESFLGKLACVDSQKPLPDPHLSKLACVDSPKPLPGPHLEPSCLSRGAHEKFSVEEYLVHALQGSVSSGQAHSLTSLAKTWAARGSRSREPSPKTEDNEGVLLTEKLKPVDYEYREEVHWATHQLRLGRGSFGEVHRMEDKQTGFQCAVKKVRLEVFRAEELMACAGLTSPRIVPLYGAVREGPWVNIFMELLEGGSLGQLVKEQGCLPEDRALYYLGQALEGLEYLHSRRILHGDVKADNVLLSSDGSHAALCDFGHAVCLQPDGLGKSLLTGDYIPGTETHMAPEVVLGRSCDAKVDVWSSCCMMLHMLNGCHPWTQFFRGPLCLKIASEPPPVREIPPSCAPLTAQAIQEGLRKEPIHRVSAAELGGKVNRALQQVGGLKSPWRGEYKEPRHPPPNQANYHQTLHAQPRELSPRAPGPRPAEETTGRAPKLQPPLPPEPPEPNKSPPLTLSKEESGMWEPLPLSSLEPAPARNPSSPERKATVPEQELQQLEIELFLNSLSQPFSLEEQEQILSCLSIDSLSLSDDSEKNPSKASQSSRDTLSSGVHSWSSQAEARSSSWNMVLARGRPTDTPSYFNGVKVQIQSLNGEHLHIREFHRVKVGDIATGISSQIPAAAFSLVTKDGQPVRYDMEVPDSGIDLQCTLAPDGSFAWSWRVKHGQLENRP
Format: biochemical
For `CC(C)(O)C#Cc1ccc2nc(OC3COC3)n(-c3ccnc(N)n3)c2c1` [Example T1.1-96, 4-[3-(2-aminopyrimidin-4-yl)-2-(oxetan-3-yloxy)benzimidazol-5-yl]-2-methyl-but-3-yn-2-ol], the Ki was 100 nM. Work on `Cc1cc(C(C)(O)C#Cc2ccc3nc(OC4CN(CCO)C4)n(-c4ccnc(N)n4)c3c2)no1` (stereo not drawn) [Example T1.1-97, 4-[3-(2-aminopyrimidin-4-yl)-2-[1-(2-hydroxyethyl)azetidin-3-yl]oxy-benzimidazol-5-yl]-2-(5-methyl-isoxazol-3-yl)but-3-yn-2-ol] yielded a Ki of 102 nM. Compound `Cc1nn(-c2ccnc(N)n2)c2cc(C#CC(C)(O)c3ncc[nH]3)ccc12` (stereo not drawn) [Example T1.1-98, 4-[1-(2-aminopyrimidin-4-yl)-3-methyl-indazol-6-yl]-2-(1H-imidazol-2-yl)but-3-yn-2-ol] has a Ki of 111 nM. For `Cc1nc2ccc(C#CC(C)(O)CC3CC3)cc2n1-c1ncnc(N)n1` (stereo not drawn) [Example T1.1-99, 4-[3-(4-amino-1,3,5-triazin-2-yl)-2-methyl-benzimidazol-5-yl]-1-cyclopropyl-2-methyl-but-3-yn-2-ol], the Ki was 129 nM. In the case of `Cc1nc2ccc(C#CC(C)(O)CO)cc2n1-c1ncnc(N)n1` (stereo not drawn) [Example T1.1-100, 4-[3-(4-amino-1,3,5-triazin-2-yl)-2-methyl-benzimidazol-5-yl]-2-methyl-but-3-yne-1,2-diol], the Ki is reported as 130 nM. `CNc1nccc(-n2ncc3ccc(C#C[C@@](C)(O)c4cc(C)on4)cc32)n1` [Example T1.1-101, (2R)-4-[1-[2-(methylamino)pyrimidin-4-yl]indazol-6-yl]-2-(5-methylisoxazol-3-yl)but-3-yn-2-ol] was tested, and the Ki was 150 nM. Work on `Cc1nn(-c2ccnc(N)n2)c2cc(C#CC(C)(O)C(=O)N3CC(O)C3)ccc12` (stereo not drawn) [Example T1.1-102, 4-[1-(2-aminopyrimidin-4-yl)-3-methyl-indazol-6-yl]-2-hydroxy-1-(3-hydroxyazetidin-1-yl)-2-methyl-but-3-yn-1-one] yielded a Ki of 310 nM. For `Cc1nn(-c2ccnc(N)n2)c2cc(C#CC(C)(O)C(=O)N(C)C)ccc12` (stereo not drawn) [Example T1.1-103, 4-[1-(2-aminopyrimidin-4-yl)-3-methyl-indazol-6-yl]-2-hydroxy-N,N,2-trimethyl-but-3-ynamide], the Ki was 315 nM. `Cc1cc(C(C)(O)C#Cc2ccc3nc(C(=O)N4CCCC4)n(-c4ccnc(N)n4)c3c2)no1` (stereo not drawn) [Example T1.1-104, [1-(2-aminopyrimidin-4-yl)-6-[3-hydroxy-3-(5-methylisoxazol-3-yl)but-1-ynyl]benzimidazol-2-yl]-pyrrolidin-1-yl-methanone] was tested, and the Ki was 342 nM. For `Cc1nc2ccc(C#CC3(O)CCCCC3)cc2n1-c1ncnc(N)n1` [Example T1.1-106, 1-[2-[3-(4-amino-1,3,5-triazin-2-yl)-2-methyl-benzimidazol-5-yl]ethynyl]cyclohexanol], the Ki was 775 nM. Work on `Cc1nc2ccc(C#CC3(CO)CCCC3)cc2n1-c1ncnc(N)n1` [Example T1.1-107, [1-[2-[3-(4-amino-1,3,5-triazin-2-yl)-2-methyl-benzimidazol-5-yl]ethynyl]cyclopentyl]methanol] yielded a Ki of 913 nM. With `CC(O)(C#Cc1ccc2nc(OCCO)n(-c3ccnc(N)n3)c2c1)c1ccc(F)cn1` (stereo not drawn) [Example T1.1-108, 4-[3-(2-aminopyrimidin-4-yl)-2-(2-hydroxyethoxy)benzimidazol-5-yl]-2-(5-fluoro-2-pyridyl)but-3-yn-2-ol] the Ki was 1600 nM. `Cc1nc2ccc(C#CC(O)C3CC(O)C3)cc2n1-c1ncnc(N)n1` (stereo not drawn) [Example T1.1-109, 3-[3-[3-(4-amino-1,3,5-triazin-2-yl)-2-methyl-benzimidazol-5-yl]-1-hydroxy-prop-2-ynyl]cyclobutanol] was tested, and the Ki was 1600 nM. For `Cc1nc2ccc(C#CC3(O)CC4CCC3C4)cc2n1-c1ncnc(N)n1` (stereo not drawn) [Example T1.1-110, 2-[2-[3-(4-amino-1,3,5-triazin-2-yl)-2-methyl-benzimidazol-5-yl]ethynyl] norbornan-2-ol], the Ki was 1700 nM. `Cc1nc2ccc(C#CC(C)(O)c3nc(CO)cs3)cc2n1-c1ncnc(N)n1` (stereo not drawn) [Example T1.1-111, 4-[3-(4-amino-1,3,5-triazin-2-yl)-2-methyl-benzimidazol-5-yl]-2-[4-(hydroxy-methyl)thiazol-2-yl]but-3-yn-2-ol] was tested, and the Ki was 1700 nM. `Cc1nc2ccc(C#CC(C)(O)c3nc(CC#N)cs3)cc2n1-c1ncnc(N)n1` (stereo not drawn) [Example T1.1-112, 2-[2-[3-[3-(4-amino-1,3,5-triazin-2-yl)-2-methyl-benzimidazol-5-yl]-1-hydroxy-1-methyl-prop-2-ynyl]thiazol-4-yl] acetonitrile] showed a Ki of 1800 nM. In the case of `Cc1nc2ccc(C#CC3(O)CC(C#N)C3)cc2n1-c1ncnc(N)n1` (stereo not drawn) [Example T1.1-113, 3-[2-[3-(4-amino-1,3,5-triazin-2-yl)-2-methyl-benzimidazol-5-yl]ethynyl]-3-hydroxy-cyclobutanecarbonitrile], the Ki is reported as 2400 nM. For `Cc1nc2ccc(C#CC3(O)CCCOC3)cc2n1-c1ncnc(N)n1` (stereo not drawn) [Example T1.1-114, 3-[2-[3-(4-amino-1,3,5-triazin-2-yl)-2-methyl-benzimidazol-5-yl]ethynyl] tetrahydropyran-3-ol], the Ki was 2600 nM. `Cc1nc2ccc(C#CC3(O)CC(CO)C3)cc2n1-c1ncnc(N)n1` (stereo not drawn) [Example T1.1-115, 1-[2-[3-(4-amino-1,3,5-triazin-2-yl)-2-methyl-benzimidazol-5-yl]ethynyl]-3-(hydroxymethyl)cyclobutanol] showed a Ki of 3900 nM. Work on `Cc1nc2ccc(C#CC3(O)COC3)cc2n1-c1ncnc(N)n1` [Example T1.1-116, 3-[2-[3-(4-amino-1,3,5-triazin-2-yl)-2-methyl-benzimidazol-5-yl]ethynyl] oxetan-3-ol] yielded a Ki of at least 5000 nM. Work on `CN(C)C(=O)c1nn(-c2ccnc(N)n2)c2cc(C#CC3(O)CCn4cncc43)ccc12` (stereo not drawn) [Example T1.1-117, 1-(2-aminopyrimidin-4-yl)-6-[2-(7-hydroxy-5,6-dihydropyrrolo[1,2-c]imidazol-7-yl)ethynyl]-N,N-dimethyl-indazole-3-carboxamide] yielded a Ki of at least 5000 nM. Compound `Cc1nc2ccc(C#CC(C)(C)CO)cc2n1-c1ncnc(N)n1` [Example T1.1-118, 4-[3-(4-amino-1,3,5-triazin-2-yl)-2-methyl-benzimidazol-5-yl]-2,2-dimethyl-but-3-yn-1-ol] has a Ki of at least 5000 nM. For `CNc1ccnc(-n2ncc3ccc(C#CC(C)(O)c4cc(C)on4)cc32)n1` (stereo not drawn) [Example T1.1-119, 4-[1-[4-(methylamino)pyrimidin-2-yl]indazol-6-yl]-2-(5-methyl-isoxazol-3-yl)but-3-yn-2-ol], the Ki was at least 5000 nM. `Nc1nccc(-n2ncc3c(F)cc(C#CC4(O)CCCC4)cc32)n1` [Example T1.1-120, 1-[2-[1-(2-aminopyrimidin-4-yl)-4-fluoro-indazol-6-yl]ethynyl] cyclopentanol] gave a Ki of at least 5000 nM. In the case of `CC(O)(C#Cc1ccc2c(C(=O)N3CCOCC3)nn(-c3ccnc(N)n3)c2c1)c1ccncn1` (stereo not drawn) [Example T1.1-121, [1-(2-aminopyrimidin-4-yl)-6-(3-hydroxy-3-pyrimidin-4-yl-but-1-ynyl)indazol-3-yl]-morpholino-methanone], the Ki is reported as at least 5000 nM. In the case of `Cc1nc([C@](C)(O)C#Cc2ccc3nc(OCCF)n(-c4ccnc(N)n4)c3c2)no1` [Example T1.1-122, (2R)-4-[3-(2-aminopyrimidin-4-yl)-2-(2-fluoroethoxy)benzimidazol-5-yl]-2-(5-methyl-1,2,4-oxadiazol-3-yl)but-3-yn-2-ol], the Ki is reported as 0.3 nM. `CC(O)(C#Cc1ccc2nc(OCCO)n(-c3ccnc(N)n3)c2c1)c1ccc(Cl)cn1` (stereo not drawn) [Example T1.1-123, 4-[3-(2-aminopyrimidin-4-yl)-2-(2-hydroxyethoxy)benzimidazol-5-yl]-2-(5-chloro-2-pyridyl)but-3-yn-2-ol] showed a Ki of at least 5000 nM. In the case of `Cc1nn(-c2ccnc(N)n2)c2cc(C#CC(C)(O)c3nccs3)ccc12` (stereo not drawn) [Example T1.1-125, 4-[1-(2-aminopyrimidin-4-yl)-3-methyl-indazol-6-yl]-2-thiazol-2-yl-but-3-yn-2-ol], the Ki is reported as 1 nM. `Cc1nc2ccc(C#CC(C)(O)Cn3cccn3)cc2n1-c1ncnc(N)n1` (stereo not drawn) [Example T1.1-126, 4-[3-(4-amino-1,3,5-triazin-2-yl)-2-methyl-benzimidazol-5-yl]-2-methyl-1-pyrazol-1-yl-but-3-yn-2-ol] gave a Ki of at least 5000 nM. Work on `CC(O)(C#Cc1ccc2c(C(=O)N3CCOCC3)nn(-c3ccnc(N)n3)c2c1)c1ncccn1` (stereo not drawn) [Example T1.1-130, [1-(2-aminopyrimidin-4-yl)-6-(3-hydroxy-3-pyrimidin-2-yl-but-1-ynyl)indazol-3-yl]-morpholino-methanone] yielded a Ki of at least 5000 nM. `COCCNc1nc2ccc(C#CC(C)(O)c3nc(C)cs3)cc2n1-c1ccnc(N)n1` (stereo not drawn) [Example T1.1-131, 4-[3-(2-aminopyrimidin-4-yl)-2-(2-methoxyethylamino)benzimidazol-5-yl]-2-(4-methylthiazol-2-yl)but-3-yn-2-ol] was tested, and the Ki was 9 nM. Compound `CC(O)(C#Cc1ccc2nc(OCCO)n(-c3ccnc(N)n3)c2c1)c1ccc(Cl)cn1` (stereo not drawn) [Example T1.1-133, 4-[3-(2-aminopyrimidin-4-yl)-2-(2-hydroxyethoxy)benzimidazol-5-yl]-2-(5-chloro-2-pyridyl)but-3-yn-2-ol] has a Ki of 0.4 nM. `Cc1nn(-c2ccnc(N)n2)c2cc(C#CC3(O)CCCN(C)C3=O)ccc12` (stereo not drawn) [Example T1.1-136, 3-[2-[1-(2-aminopyrimidin-4-yl)-3-methyl-indazol-6-yl]ethynyl]-3-hydroxy-1-methyl-piperidin-2-one] was tested, and the Ki was 2 nM. For `Cc1nnc(C(C)(O)C#Cc2ccc3c(C(=O)N4CCOCC4)nn(-c4ccnc(N)n4)c3c2)o1` (stereo not drawn) [Example T1.1-137, [1-(2-aminopyrimidin-4-yl)-6-[3-hydroxy-3-(5-methyl-1,3,4-oxadiazol-2-yl)but-1-ynyl]indazol-3-yl]-morpholino-methanone], the Ki was 7 nM. `COCCN(C)C(=O)c1nn(-c2ccnc(N)n2)c2cc(C#CC(C)(O)c3ncccn3)ccc12` (stereo not drawn) [Example T1.1-138, 1-(2-aminopyrimidin-4-yl)-6-(3-hydroxy-3-pyrimidin-2-yl-but-1-ynyl)-N-(2-methoxyethyl)-N-methyl-indazole-3-carboxamide] was tested, and the Ki was 0.2 nM. In the case of `CC(O)(C#Cc1ccc2c(C(=O)N3CC(F)(F)C3)nn(-c3ccnc(N)n3)c2c1)c1ncccn1` (stereo not drawn) [Example T1.1-139, [1-(2-aminopyrimidin-4-yl)-6-(3-hydroxy-3-pyrimidin-2-yl-but-1-ynyl)indazol-3-yl]-(3,3-difluoroazetidin-1-yl)methanone], the Ki is reported as 20 nM.
